Assay results published in US20260315494A1, “TREATMENT OF BREAST TISSUE” (Havah Therapeutics Pty Ltd, priority 2023, published 2026).
Several values for one entry are separate records, joined by “and”; a condition that tells them apart may be missing. Equal entries are not always repeated.

Experiment: Single-dose pharmacokinetics of T+Ai pellet implant (80 mg testosterone + 4 mg anastrozole, subcutaneous)
Settings: for concentration at 24 h: 24 h post-dose
Procedure: The premenopausal women were aged between 35 and 55 years of age with a BMI range of 20-30 kg/m^2. […] The implant was intended to be left in situ and was expected to be almost completely absorbed within three months following insertion.
A total of 11 subjects were dosed with the implant and included in the safety analysis set. All 11 subjects were included in the pharmacokinetics (PK) analysis set.
(NB: the sample collection time point at 6 hours post-dose was added for the third and subsequent subject and so serum measurements were not determined for the first two subjects as noted below).
Patients seeking treatment with the T+Ai for reduction in high MBD were eligible for the study. Following successful screening, subjects attended the Wellend Health Clinic for dosing. The trial was designed to dose all subjects while in the luteal phase of their menstrual cycle to avoid the highly changing hormonal environment of the follicular phase. Following insertion of the implant, PK blood sampling was carried out for a duration of three months (see below). Briefly, samples were taken repeatedly on the day of dosing, daily during the first week, weekly for the next four weeks and every second week during the last eight weeks of a total sampling period of three months.
The sampling schedule was revised with the addition of one blood sample (at 6 hours post-dose as discussed above), and no adjustment of the timing of existing time points was made. The duration of sampling was not extended.
Following dosing on Day 1, blood samples were taken pre-dose (within one hour of dosing) and at 1, 2, 4, 6, 8 and 12 hours. Participants returned for a blood sample to be taken at 9 am in the morning on Days 2, 3, 4, 5, 8, 15, 22, 29, 43, 57, 71 and 85.

CC(C)(C#N)c1cc(Cn2cncn2)cc(C(C)(C)C#N)c1 [Anastrozole, 2,2′-[5-(1H-1,2,4-triazol-1-ylmethyl)-1,3-phenylene]bis(2-methylpropanenitrile)]
anastrozole level versus conventional full oral dosing (compared with conventional full oral dosing): 5 times lower | Tmax (human, in vivo, sc, 4 mg): 24 to 72 h | concentration at 1008 h (human, in vivo, sc, 4 mg, Measured serum anastrozole, GeoMean, geometric mean (BLQ excluded), 1008 h post-dose): 0.49 ng/mL | concentration at 1344 h (human, in vivo, sc, 4 mg, Measured serum anastrozole, GeoMean, geometric mean (BLQ excluded), 1344 h post-dose): 0.3 ng/mL | concentration at 1680 h (human, in vivo, sc, 4 mg, Measured serum anastrozole, GeoMean, geometric mean (BLQ excluded), 1680 h post-dose): 0.26 ng/mL | concentration at 2016 h (human, in vivo, sc, 4 mg, Measured serum anastrozole, GeoMean, geometric mean (BLQ excluded), 2016 h post-dose): 0.21 ng/mL | concentration at 1 h (human, in vivo, sc, 4 mg, Measured serum anastrozole, GeoMean, geometric mean, 1 h post-dose): 0.35 ng/mL | concentration at 2 h (human, in vivo, sc, 4 mg, Measured serum anastrozole, GeoMean, geometric mean, 2 h post-dose): 0.61 ng/mL | concentration at 4 h (human, in vivo, sc, 4 mg, Measured serum anastrozole, GeoMean, geometric mean, 4 h post-dose): 1.15 ng/mL | concentration at 6 h (human, in vivo, sc, 4 mg, Measured serum anastrozole, GeoMean, geometric mean, 6 h post-dose): 2.31 ng/mL | concentration at 8 h (human, in vivo, sc, 4 mg, Measured serum anastrozole, GeoMean, geometric mean, 8 h post-dose): 3.23 ng/mL | concentration at 12 h (human, in vivo, sc, 4 mg, Measured serum anastrozole, GeoMean, geometric mean, 12 h post-dose): 3.97 ng/mL | concentration at 24 h (human, in vivo, sc, 4 mg, Measured serum anastrozole, GeoMean, geometric mean): 4.77 ng/mL | concentration at 48 h (human, in vivo, sc, 4 mg, Measured serum anastrozole, GeoMean, geometric mean, 48 h post-dose): 4.98 ng/mL | concentration at 72 h (human, in vivo, sc, 4 mg, Measured serum anastrozole, GeoMean, geometric mean, 72 h post-dose): 4.92 ng/mL | concentration at 96 h (human, in vivo, sc, 4 mg, Measured serum anastrozole, GeoMean, geometric mean, 96 h post-dose): 4.58 ng/mL | concentration at 168 h (human, in vivo, sc, 4 mg, Measured serum anastrozole, GeoMean, geometric mean, 168 h post-dose): 3.5 ng/mL | concentration at 504 h (human, in vivo, sc, 4 mg, Measured serum anastrozole, GeoMean, geometric mean, 504 h post-dose): 1.42 ng/mL | concentration at 24 h (human, in vivo, sc, 4 mg, Measured serum anastrozole, individual subject): 6.08 ng/mL | concentration at 48 h (human, in vivo, sc, 4 mg, Measured serum anastrozole, individual subject, 48 h post-dose): 6.17 ng/mL | concentration at 72 h (human, in vivo, sc, 4 mg, Measured serum anastrozole, individual subject, 72 h post-dose): 4.94 ng/mL | concentration at 96 h (human, in vivo, sc, 4 mg, Measured serum anastrozole, individual subject, 96 h post-dose): 4.36 ng/mL | concentration at 168 h (human, in vivo, sc, 4 mg, Measured serum anastrozole, individual subject, 168 h post-dose): 2.84 ng/mL | concentration at 1 h (human, in vivo, sc, 4 mg, Measured serum anastrozole, mean, 1 h post-dose): 0.38 ng/mL | concentration at 2 h (human, in vivo, sc, 4 mg, Measured serum anastrozole, mean, 2 h post-dose): 0.7 ng/mL | concentration at 4 h (human, in vivo, sc, 4 mg, Measured serum anastrozole, mean, 4 h post-dose): 1.37 ng/mL | concentration at 6 h (human, in vivo, sc, 4 mg, Measured serum anastrozole, mean, 6 h post-dose): 2.58 ng/mL | concentration at 8 h (human, in vivo, sc, 4 mg, Measured serum anastrozole, mean, 8 h post-dose): 3.44 ng/mL | concentration at 12 h (human, in vivo, sc, 4 mg, Measured serum anastrozole, mean, 12 h post-dose): 4.06 ng/mL | concentration at 24 h (human, in vivo, sc, 4 mg, Measured serum anastrozole, mean): 4.84 ng/mL | concentration at 48 h (human, in vivo, sc, 4 mg, Measured serum anastrozole, mean, 48 h post-dose): 5.06 ng/mL | concentration at 72 h (human, in vivo, sc, 4 mg, Measured serum anastrozole, mean, 72 h post-dose): 4.96 ng/mL | concentration at 96 h (human, in vivo, sc, 4 mg, Measured serum anastrozole, mean, 96 h post-dose): 4.62 ng/mL | concentration at 168 h (human, in vivo, sc, 4 mg, Measured serum anastrozole, mean, 168 h post-dose): 3.57 ng/mL | concentration at 504 h (human, in vivo, sc, 4 mg, Measured serum anastrozole, mean, 504 h post-dose): 1.47 ng/mL | concentration at 1008 h (human, in vivo, sc, 4 mg, Measured serum anastrozole, mean, 1008 h post-dose): 0.49 ng/mL | concentration at 1344 h (human, in vivo, sc, 4 mg, Measured serum anastrozole, mean, 1344 h post-dose): 0.22 ng/mL | concentration at 1680 h (human, in vivo, sc, 4 mg, Measured serum anastrozole, mean, 1680 h post-dose): 0.1 ng/mL | concentration at 2016 h (human, in vivo, sc, 4 mg, Measured serum anastrozole, mean, 2016 h post-dose): 0.04 ng/mL | concentration at 1 h (human, in vivo, sc, 4 mg, Measured serum anastrozole, median, 1 h post-dose): 0.32 ng/mL | concentration at 2 h (human, in vivo, sc, 4 mg, Measured serum anastrozole, median, 2 h post-dose): 0.62 ng/mL | concentration at 4 h (human, in vivo, sc, 4 mg, Measured serum anastrozole, median, 4 h post-dose): 1.12 ng/mL | concentration at 6 h (human, in vivo, sc, 4 mg, Measured serum anastrozole, median, 6 h post-dose): 3.08 ng/mL | concentration at 8 h (human, in vivo, sc, 4 mg, Measured serum anastrozole, median, 8 h post-dose): 3.5 ng/mL | concentration at 12 h (human, in vivo, sc, 4 mg, Measured serum anastrozole, median, 12 h post-dose): 4.32 ng/mL | concentration at 24 h (human, in vivo, sc, 4 mg, Measured serum anastrozole, median): 4.96 ng/mL | concentration at 48 h (human, in vivo, sc, 4 mg, Measured serum anastrozole, median, 48 h post-dose): 5.05 ng/mL | concentration at 72 h (human, in vivo, sc, 4 mg, Measured serum anastrozole, median, 72 h post-dose): 4.92 ng/mL | concentration at 96 h (human, in vivo, sc, 4 mg, Measured serum anastrozole, median, 96 h post-dose): 4.6 ng/mL | concentration at 168 h (human, in vivo, sc, 4 mg, Measured serum anastrozole, median, 168 h post-dose): 3.58 ng/mL | concentration at 504 h (human, in vivo, sc, 4 mg, Measured serum anastrozole, median, 504 h post-dose): 1.36 ng/mL | concentration at 1008 h (human, in vivo, sc, 4 mg, Measured serum anastrozole, median, 1008 h post-dose): 0.4 ng/mL | concentration at 1344 h (human, in vivo, sc, 4 mg, Measured serum anastrozole, median, 1344 h post-dose): 0.16 ng/mL | concentration at 2016 h (human, in vivo, sc, 4 mg, plasma anastrozole concentration after 12 weeks, below limit of quantitation in most participants after 12 weeks): < 0.1 ng/mL | Measured serum anastrozole (individual subject, 1 h post-dose, 60 min): 0.215 ng/mL and 0.525 ng/mL and 0.218 ng/mL and 0.515 ng/mL and 0.394 ng/mL and 0.127 ng/mL and 0.855 ng/mL and 0.321 ng/mL and 0.243 ng/mL and 0.751 ng/mL | Measured serum anastrozole (individual subject, 2 h post-dose, 120 min): 0.404 ng/mL and 0.615 ng/mL and 1.30 ng/mL and 0.887 ng/mL and 0.831 ng/mL and 0.306 ng/mL and 1.04 ng/mL and 0.596 ng/mL and 0.509 ng/mL and 0.180 ng/mL and 1.02 ng/mL | Measured serum anastrozole (individual subject, 4 h post-dose, 240 min): 1.03 ng/mL and 2.97 ng/mL and 2.23 ng/mL and 0.902 ng/mL and 1.50 ng/mL and 0.582 ng/mL and 2.11 ng/mL | Measured serum anastrozole (individual subject, 6 h post-dose, 360 min): 3.11 ng/mL and 3.07 ng/mL and 3.42 ng/mL (2×) and 1.63 ng/mL and 3.21 ng/mL and 1.62 ng/mL and 0.651 ng/mL | Measured serum anastrozole (individual subject, 8 h post-dose, 480 min): 4.28 ng/mL and 3.41 ng/mL and 3.48 ng/mL and 4.75 ng/mL and 4.16 ng/mL and 2.18 ng/mL and 3.66 ng/mL and 3.33 ng/mL and 1.06 ng/mL and 3.99 ng/mL | Measured serum anastrozole (individual subject, 12 h post-dose, 720 min): 5.13 ng/mL and 3.27 ng/mL and 4.42 ng/mL and 3.87 ng/mL and 3.32 ng/mL and 4.86 ng/mL and 4.18 ng/mL and 2.25 ng/mL | Measured serum anastrozole (individual subject, 48 h post-dose, 2880 min): 3.95 ng/mL and 5.85 ng/mL and 5.58 ng/mL and 6.07 ng/mL and 4.85 ng/mL and 3.31 ng/mL and 5.28 ng/mL | Measured serum anastrozole (individual subject, 72 h post-dose, 4320 min): 4.72 ng/mL and 5.16 ng/mL and 5.00 ng/mL and 6.29 ng/mL and 5.68 ng/mL and 4.76 ng/mL and 3.66 ng/mL and 4.85 ng/mL | Measured serum anastrozole (individual subject, 96 h post-dose, 5760 min): 4.12 ng/mL and 4.67 ng/mL and 5.17 ng/mL | Measured serum anastrozole (individual subject, 168 h post-dose, 10080 min): 4.35 ng/mL | Measured serum anastrozole (individual subject, 504 h post-dose, 30240 min): 1.70 ng/mL and 1.83 ng/mL and 1.59 ng/mL | Measured serum anastrozole (individual subject, 1008 h post-dose, 60480 min): 0.332 ng/mL and 0.665 ng/mL and 0.505 ng/mL and 0.624 ng/mL | Measured serum anastrozole (individual subject, 1344 h post-dose, 80640 min): 0.144 ng/mL and 0.279 ng/mL | Measured serum anastrozole (individual subject, 1680 h post-dose, 100800 min): 0.143 ng/mL | Measured serum anastrozole, mean (mean, pre-dose): 0.00 ng/mL | Measured serum anastrozole, median (median, pre-dose): 0.00 ng/mL | average Cmax, plasma anastrozole (plasma): 5.30 ng/mL | average terminal half-life, anastrozole (plasma): 336 h | median Tmax for plasma anastrozole (plasma, post-dose): 48 h
